From PubChem BioAssay (NCI)
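Assay format: 96-well plates, 48-hour exposure. TGI: total growth inhibition.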

How the values were obtained:
Test in all cases: NCI-60 cell line screen, 48 h
NCI-H460 lung = test system: NCI-H460 lung
HL-60(TB) leukemia = test system: HL-60(TB) leukemia
OVCAR-4 ovarian = test system: OVCAR-4 ovarian
BT-549 breast = test system: BT-549 breast
HCT-116 colon = test system: HCT-116 colon
SK-MEL-5 melanoma = test system: SK-MEL-5 melanoma
HCC-2998 colon = test system: HCC-2998 colon
T-47D breast = test system: T-47D breast
KM12 colon = test system: KM12 colon
SW-620 colon = test system: SW-620 colon
UO-31 renal = test system: UO-31 renal

Row | SMILES | TGI (NCI-H460 lung) | TGI (HL-60(TB) leukemia) | TGI (OVCAR-4 ovarian) | TGI (BT-549 breast) | TGI (HCT-116 colon) | TGI (SK-MEL-5 melanoma) | TGI (HCC-2998 colon) | TGI (T-47D breast) | TGI (KM12 colon) | TGI (SW-620 colon) | TGI (UO-31 renal)
1 | CSc1nc(=S)[nH]c2n[nH]c(C)c12 | > 100 µM | > 100 µM | > 100 µM | > 100 µM | > 100 µM | > 100 µM | > 100 µM | > 100 µM | > 100 µM | > 100 µM | > 100 µM
2 | CC(=O)Nc1c(C)cc(OCC(=O)O)cc1C | > 100 µM | > 100 µM | > 100 µM | > 100 µM | > 100 µM | > 100 µM | > 100 µM | > 100 µM | > 100 µM | > 100 µM | > 100 µM
3 | CCCOC(=O)c1cc(C(=CCC[C@H]2CC[C@@]3(C)[C@@H](CC[C@@H]4[C@@H]3CC[C@]3(C)[C@@H](C(C)CCCC(C)C)CC[C@@H]43)C2)c2cc(Cl)c(O)c(C(=O)OCCC)c2)cc(Cl)c1O (stereo partly specified) | > 50 µM | > 50 µM | > 50 µM | > 50 µM | > 50 µM | > 50 µM | > 50 µM | > 50 µM | > 50 µM | > 50 µM | –
4 | CCN(CC)c1ccc(/C=C/C2=NN(c3cccc(S(=O)(=O)O)c3)C3(C2)C(Cl)C(=O)N3c2nc3ccccc3s2)cc1 (stereo unspecified) | 25.8 µM | 4.01 µM | 9.83 µM | 22.7 µM | 24.1 µM | 20.9 µM | 21.4 µM | 12.9 µM | 20.9 µM | 53.4 µM | 3.6 µM
5 | CC1C2CC(C(C3C(=O)C4CC3C(C)(C)C4C)C2=O)C1(C)C (stereo unspecified) | > 100 µM | > 100 µM | > 100 µM | > 100 µM | > 100 µM | > 100 µM | > 100 µM | > 100 µM | > 100 µM | > 100 µM | > 100 µM
6 | O=C(Nc1ccccc1)N1CCNC1=S | > 100 µM | > 100 µM | > 100 µM | > 100 µM | > 100 µM | > 100 µM | 85.8 µM | > 100 µM | > 100 µM | > 100 µM | > 100 µM
7 | O=c1cc(-c2ccc(O)c(O)c2)oc2cc(OC3OC(CO)C(O)C(O)C3O)cc(O)c12 (stereo unspecified) | > 100 µM | > 100 µM | > 100 µM | > 100 µM | > 100 µM | > 100 µM | > 100 µM | > 100 µM | > 100 µM | > 100 µM | > 100 µM
8 | CC1=NC(=Cc2ccc(Cl)cc2)C(=O)N1n1c(-c2ccccc2)nc2ccccc2c1=O | 60.7 µM | 78.6 µM | – | > 100 µM | > 100 µM | > 100 µM | > 100 µM | 74.3 µM | > 100 µM | > 100 µM | > 100 µM
9 | O=C(CNC(=O)OCc1ccccc1)NCCCCC(NC(=O)OCc1ccccc1)C(=O)O (stereo unspecified) | > 100 µM | > 100 µM | > 100 µM | > 100 µM | > 100 µM | > 100 µM | > 100 µM | > 100 µM | > 100 µM | > 100 µM | > 100 µM
10 | Cc1[nH]c2ncn(/N=C/c3ccccc3)c(=N)c2c1Cc1ccccc1 | > 100 µM | > 100 µM | > 100 µM | > 100 µM | > 100 µM | – | > 100 µM | > 100 µM | > 100 µM | > 100 µM | > 100 µM
11 | COc1ccccc1NC(=O)C(C#N)=C(SC)SC | > 100 µM | > 100 µM | > 100 µM | > 100 µM | > 100 µM | > 100 µM | > 100 µM | > 100 µM | > 100 µM | > 100 µM | > 100 µM
12 | CCCCCCN(C(=O)Oc1ccccc1)C(C#N)c1ccccc1 (stereo unspecified) | – | > 100 µM | > 100 µM | > 100 µM | > 100 µM | > 100 µM | > 100 µM | > 100 µM | > 100 µM | > 100 µM | > 100 µM
13 | CCOC(=O)CNC(=O)C(CSC(=O)N(O)c1ccc(Br)cc1)NC(=O)CCC(N)C(=O)OCC (stereo unspecified) | > 50 µM | 0.00622 µM | > 50 µM | > 50 µM | > 50 µM | > 50 µM | > 50 µM | > 50 µM | > 50 µM | > 50 µM | > 50 µM
14 | CC(C)=CCC/C(C)=C/Cc1cc(/C=C/c2cc(O)c(CC=C(C)C)c(O)c2)cc(O)c1O | 9.2 µM | 2.79 µM | 7.1 µM | 13.3 µM | 11.9 µM | 5.88 µM | 5.86 µM | 4.54 µM | 14.7 µM | 14.5 µM | 2.89 µM
15 | Cc1ccc2c(c1)C(C1Cc3c(C)cccc3C1=O)OC2=O (stereo unspecified) | > 100 µM | > 100 µM | > 100 µM | > 100 µM | > 100 µM | > 100 µM | > 100 µM | > 100 µM | > 100 µM | > 100 µM | > 100 µM
